Series [1] can be described thus: Metabolic stability test: liver microsomal stability assay. The format is in vitro ADME, mouse. To be noted: for microsomal CLint at 1 µM: male, pH 7.4, presence of NADPH, read-out: Mouse Hepatic Microsome CLh,int NADPH(+). For orientation: Liver microsomes are a subcellular fraction often used to study metabolism.
A short description of series [2]: Membrane permeability test using Caco-2 cells with preincubation. Type of series: in vitro ADME. Particulars: Caco-2.
A further series concerns Caco-2 cells. Described as above. Type of series: in vitro ADME.
Where [3] appears, read: mouse liver microsomes 0.5 mg protein/mL, compound 1 µM.
Setting [4] is: mouse liver microsomes 0.5 mg protein/mL, compound 1 µM, absence of NADPH.
Setting [5] is: preincubation 20 to 24 hours, Apical FaSSIF/HBSS pH 6.0, Basal HBSS 4% BSA pH 7.4, 180 minutes, read-out: Caco2 Papp.
The mark [6] stands for this setting: Caco-2 cells, preincubation 20 to 24 hours, apical FaSSIF/HBSS 1% DMSO pH 6.0, basal HBSS 4% BSA pH 7.4, basal sample at 180 minutes.

Data on five molecules can be found in EP4768499A1, “MACROCYCLIC PEPTIDE COMPOUND HAVING CELL MEMBRANE PERMEABILITY AND METABOLIC STABILITY, AND LIBRARY CONTAINING SAME” (Chugai Seiyaku Kabushiki Kaisha, priority 2023, dated 2025).

Read-outs that look alike come from different tables or passages of the source. Starred links: 1 amine or outer side, 2 acyl side, 3 side chain; linkers in the order of their positions; H or OH if unused. Positions of bridges follow the written chain, without caps; N, C: chain ends. Non-standard residues stand in square brackets, D forms with d. Residues, ends and D or L forms follow the SMILES beside them. *: point of attachment. NMeF = CN[C@@H](Cc1ccccc1)C(=O)O; NMeGABA = CN(CCCC(=O)[*:2])[*:1]; NMeI = CC[C@H](C)[C@H](NC)C(=O)O; NMeT = CN[C@H](C(=O)O)[C@@H](C)O; hPhe = N[C@@H](CCc1ccccc1)C(=O)O; NMeβAla = CN(CCC(=O)[*:2])[*:1]; NMeD = CN[C@@H](CC(=O)O)C(=O)O; NMeL = CN[C@@H](CC(C)C)C(=O)O; NMeV = CN[C@H](C(=O)O)C(C)C; NMeAbu = CC[C@H](NC)C(=O)O; NMeA = CN[C@@H](C)C(=O)O; Piperidide = C1CCN(*)CC1; NBuGly = CCCCNCC(=O)O; Sar = CNCC(=O)O; tBu = CC(C)(C)*

Take `CC[C@H](C)[C@@H]1NC(=O)[C@H](Cc2ccccc2)N(C)C(=O)[C@H]([C@@H](C)O)N(C)C(=O)[C@H]([C@@H](C)CC)N(C)C(=O)[C@H](CC(C)C)NC(=O)CN(C)C(=O)[C@H](CC)N(C)C(=O)[C@H](Cc2ccccc2)N(C)C(=O)[C@H](COC(C)(C)C)NC(=O)[C@H](CC(C)C)N(C)C(=O)[C@H](CC(C)C)NC(=O)[C@H](C)N(C)C(=O)C[C@@H](C(=O)N2CCCCC2)N(C)C(=O)[C@H](CC(C)C)N(C)C1=O` [pd095] ([NMeA]L[NMeL]S(tBu)[NMeF][NMeAbu][Sar]L[NMeI][NMeT][NMeF]I[NMeL][NMeD]-Piperidide; lactam N-14): in series [1] (setting [3]), the microsomal CLint at 1 µM was found to be 25.6 µL/min/mg. Besides, the “Mouse Hepatic Microsome CLh,int NADPH(-)” value in series [1] (setting [4]) was found to be 29.2 µL/min/mg Protein. For the same molecule, the Papp A→B in series [2] (setting [5]) is < 0.1 ×10⁻⁶ cm/s. In addition, the “Caco2 Papp (10^-6 cm/sec)” value in the series with Caco-2 cells (setting [6]) was <0.10 10^-6 cm/sec.

Take `CC[C@H](C)[C@H]1C(=O)N(C)[C@@H](CC(C)C)C(=O)N[C@@H](CCc2ccccc2)C(=O)N(C)[C@@H](CC(C)C)C(=O)N(C)CCC(=O)N(C)[C@@H](C(C)C)C(=O)N[C@@H](CC(C)C)C(=O)N(C)[C@@H](CC(C)C)C(=O)N[C@@H]([C@@H](C)O)C(=O)N(C)CCC(=O)N(C)[C@@H](Cc2ccccc2)C(=O)N[C@@H](C(C)C)C(=O)N(C)[C@H](C(=O)N2CCCCC2)CC(=O)N(C)CC(=O)N1C` [pd096] ([Sar][NMeI][NMeL][hPhe][NMeL][NMeβAla][NMeV]L[NMeL]T[NMeβAla][NMeF]V[NMeD]-Piperidide; lactam N-14): the “Mouse Hepatic Microsome CLh,int NADPH(-)” value in series [1] is recorded as 18.2 µL/min/mg Protein. The Papp A→B in series [2] amounted to 0.51 ×10⁻⁶ cm/s. Further, the “Caco2 Papp (10^-6 cm/sec)” value in the series with Caco-2 cells (Caco-2) is 0.51 10^-6 cm/sec.

For the molecule `CC(C)C[C@@H]1NC(=O)[C@@H]2CCCN2C(=O)[C@H](C(C)C)N(C)C(=O)[C@H](C)NC(=O)[C@H](CC(C)C)N(C)C(=O)[C@@H](C(C)C)NC(=O)C[C@@H](C(=O)N2CCCCC2)NC(=O)[C@H](C(C)C)N(C)C(=O)[C@H](Cc2ccccc2)N(C)C(=O)[C@H](CC(C)C)NC(=O)[C@H](COC(C)(C)C)NC(=O)[C@H](CC(C)C)N(C)C(=O)CN(C)C1=O` [pd097] ([dV][NMeL]A[NMeV]PL[Sar][NMeL]S(tBu)L[NMeF][NMeV]D-Piperidide; lactam N-13), the microsomal CLint at 1 µM in series [1] (setting [3]) is 20.4 µL/min/mg. The “Mouse Hepatic Microsome CLh,int NADPH(-)” value in series [1] (setting [4]) stood at 18.8 µL/min/mg Protein. For the same molecule, the Papp A→B in series [2] (setting [5]) is 0.54 ×10⁻⁶ cm/s. Also, in the series with Caco-2 cells (setting [6]), the “Caco2 Papp (10^-6 cm/sec)” value is given as 0.54 10^-6 cm/sec.

On to `CC[C@H](C)[C@@H]1NC(=O)[C@H](C)NC(=O)[C@H](CC(C)C)N(C)C(=O)[C@H](COC(C)(C)C)NC(=O)[C@H](CC(C)C)N(C)C(=O)[C@@H]2CCCN2C(=O)[C@H](Cc2ccccc2)NC(=O)[C@H]([C@@H](C)CC)N(C)C(=O)[C@H](CC(C)C)N(C)C(=O)CCCN(C)C(=O)C[C@@H](C(=O)N2CCCCC2)NC(=O)[C@H](Cc2ccccc2)N(C)C(=O)[C@H](CC)N(C)C1=O` [pd098] ([NMeGABA][NMeL][NMeI]FP[NMeL]S(tBu)[NMeL]AI[NMeAbu][NMeF]D-Piperidide; lactam N-13), for which, in series [1] (setting [3]), the microsomal CLint at 1 µM worked out at 44.5 µL/min/mg. The “Mouse Hepatic Microsome CLh,int NADPH(-)” value in series [1] (setting [4]) came to 37.8 µL/min/mg Protein. Besides, in series [2] (setting [5]), the Papp A→B came to 0.57 ×10⁻⁶ cm/s. Moreover, in the series on Caco-2 cells (setting [6]), the “Caco2 Papp (10^-6 cm/sec)” value was 0.57 10^-6 cm/sec.

Turning to `CCCCN1CC(=O)N(C)[C@@H](CC)C(=O)N[C@H](C(=O)N2CCCCC2)CC(=O)N(C)[C@@H](C)C(=O)N[C@@H]([C@@H](C)CC)C(=O)N(C)[C@@H](Cc2ccccc2)C(=O)N(C)[C@@H](CC(C)C)C(=O)N[C@@H](C(C)C)C(=O)N(C)CC(=O)N[C@@H](CC(C)C)C(=O)N(C)[C@@H](Cc2ccccc2)C(=O)N(C)[C@@H](C)C(=O)N[C@@H](CC(C)C)C1=O` [pd099] ([NMeA]I[NMeF][NMeL]V[Sar]L[NMeF][NMeA]L[NBuGly][NMeAbu]D-Piperidide; lactam N-13), in series [1] (setting [3]), the microsomal CLint at 1 µM was found to be 30.3 µL/min/mg. The “Mouse Hepatic Microsome CLh,int NADPH(-)” value in series [1] (setting [4]) was 27.8 µL/min/mg Protein. In addition, the Papp A→B in series [2] (setting [5]) was 0.41 ×10⁻⁶ cm/s. Also, the “Caco2 Papp (10^-6 cm/sec)” value with Caco-2 cells (setting [6]) is 0.41 10^-6 cm/sec.
